From patent publication US20230416688A1, “CHEMICAL CULTURE SYSTEM AND USE THEREOF” (IREGENE THERAPEUTICS LTD, priority 2020, published 2023) come the findings set out here.

Experiment [1] concerns human neural cell line ReNcell VM. In words: Cyquant cell viability assay, neural cell line, compound concentration screening. Type of experiment: cell-based. The note with it: only this component's concentration changed. The protocol: 6-well culture plates were coated with 50 μg/mL polylysine (SIGMA, P6407) and incubated for more than 3 h at 37° C. in a thermostat after plate laying; then further coated with 5 μg/mL Laminin (I2020, SIGMAALDRICH) and incubated for more than 3 h at 37° C. in a thermostat after plate laying. Mouse primary cells and the human neural cell line ReNcell VM were cultured, where mouse primary cell isolation was performed according to the method described in Nature Protocols. Volume 7, pages 1741-1754 (2012). Cell culture conditions were 37° C., 5% carbon dioxide (Panasonic, MCO-18AC), and cell adherent culture. The culture medium of the present invention, Neuralbasal+I0% FBS and N2B27 culture medium were used for comparison, respectively. Cell passage was digested with 0.05% trypsin/EDTA at 37° C. for 5 min, and the cell digestion was terminated with DMEM+10% FBS. […]
The Cyquant assay is used for quantitative detection of cell viability to compare the effects of different medium components on the physiological state of cells during long-term cell culture. […] Samples were taken on day 1, day 5, day 15 and day 30, and cell viability assays were performed using CyQuant Kit (Invitrogen, X12223) and operated according to the instruction manual, and using SpectraMax i3 Multi-Mode Microplate Reader (VWR, model ID3-STD) for data reading. […]

Another experiment concerns induced cortical neurons. The experiment in a line: Cyquant cell viability assay during induction of cortical neurons. Type of experiment: cell-based, human. The note with it: FIG. 6n; cortical neuron induction. The protocol:
For cortical neuron differentiation, 6-well culture plates were coated with 50 μg/mL poly-Lysine (SIGMA, P6407) and incubated for more than 3 h in a 37° C. incubator after plate laying; then further coated with 3 μg/mL laminin (Laminin, 12020, SIGMAALDRICH) and incubated for more than 3 h at 37° C. after plate laying. The induced nerve stem cells obtained in Example 3 was re-inoculated into T25 culture plates at a rate of 1×105 per vial. Neural stem cells were cultured using NouvNeu culture medium at 37° C. and 5% CO2 (Panasonic, MCO-18AC), and the medium was replaced with fresh medium every three days until neurons formation on day 30. In the control experiment, N2B27 medium was used for neuron induction, and the specific operation steps were the same as above.
The Cyquant assay is used for quantitative detection of cell viability to compare the effects of different medium components on the physiological state of cells during long-term cell culture. […] Samples were taken on day 1, day 10, day 15 and day 35, and cell viability assays were performed using CyQuant Kit (Invitrogen, X12223) and operated according to the instruction manual, and using SpectraMax i3Multi-Mode Microplate Reader (VWR, Model ID3-STD) for data reading. […]

Turning to `O=C[C@H](O)[C@@H](O)[C@@H](O)[C@H](O)CO` [D(+)-galactose], the “use range of concentration in the medium (Cyquant)” value (in experiment [1] (FIG. 2b); in the experiment on induced cortical neurons) was 5 to 25 µg/mL in each case.
Regarding “recombinant human transferrin: recombinant human transferrin, component of the NouvNeu medium”, the “use range of concentration in the medium (Cyquant)” value in experiment [1] (FIG. 2d) lay within 0.05 to 0.2 µg/mL.
